Laboratory results: the supplement of paper PMC11061612

What was measured:
Olaparib = compound: O=C(c1cc(Cc2n[nH]c(=O)c3ccccc23)ccc1F)N1CCN(C(=O)C2CC2)CC1 [Olaparib]; conditions: max 10 µM
How it was run: (§1)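 Viability was measured with CellTiter-Glo 2.0 luminescence after 72 hours of dosing at a final DMSO of typically 0.2%, and scaled between blank-well and DMSO-well means. Beforehand, cancer cell lines sat 24 hours at 37°C and 5% CO2 in 1536-well plates in 7.5 μl DMEM/F12 or RPMI with 10% FBS. A non-linear mixed effects model fitted two-parameter logistic curves to the dose responses. The single-agent IC50 comes from these fits.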

Selumetinib = compound: Cn1cnc2c(F)c(Nc3ccc(Br)cc3Cl)c(C(=O)NOCCO)cc21 [Selumetinib]; conditions: max 10 µM
How it was run: as §1

AZD2811 = compound: CCN(CCO)CCCOc1ccc2c(Nc3cc(CC(=O)Nc4cccc(F)c4)[nH]n3)ncnc2c1 [AZD2811]; conditions: max 1 µM
How it was run: as §1

SG3199 = compound: CC1=CN2[C@@H](C1)C=NC3=CC(=C(C=C3C2=O)OC)OCCCCCOC4=C(C=C5C(=C4)N=C[C@@H]6CC(=CN6C5=O)C)OC [SG3199]; conditions: max 0.001 µM
How it was run: as §1

Trametinib = compound: CC(=O)Nc1cccc(-n2c(=O)n(C3CC3)c(=O)c3c(Nc4ccc(I)cc4F)n(C)c(=O)c(C)c32)c1 [Trametinib]; conditions: max 1 µM
How it was run: as §1

Palbociclib = compound: CC(=O)c1c(C)c2cnc(Nc3ccc(N4CCNCC4)cn3)nc2n(C2CCCC2)c1=O [Palbociclib]; conditions: max 10 µM
How it was run: as §1

Doxorubicin = compound: COc1cccc2c1C(=O)c1c(O)c3c(c(O)c1C2=O)C[C@@](O)(C(=O)CO)C[C@@H]3O[C@H]1C[C@H](N)[C@H](O)[C@H](C)O1 [Doxorubicin]; conditions: max 1 µM
How it was run: as §1

Taselisib = compound: Cc1nc(-c2cn3c(n2)-c2ccc(-c4cnn(C(C)(C)C(N)=O)c4)cc2OCC3)n(C(C)C)n1 [Taselisib]; conditions: max 10 µM
How it was run: as §1

AZD6738 = compound: C[C@@H]1COCCN1C2=NC(=NC(=C2)C3(CC3)[S@](=N)(=O)C)C4=C5C=CNC5=NC=C4 [AZD6738]; conditions: max 10 µM
How it was run: as §1

AZD0156 = compound: CN(C)CCCOc1ccc(-c2ccc3ncc4c(c3c2)n(C2CCOCC2)c(=O)n4C)cn1 [AZD0156]; conditions: max 3 µM
How it was run: as §1

Prexasertib = compound: COc1cccc(OCCCN)c1-c1cc(Nc2cnc(C#N)cn2)n[nH]1 [Prexasertib]; conditions: max 1 µM
How it was run: as §1

Venetoclax = compound: CC1(C)CCC(CN2CCN(c3ccc(C(=O)NS(=O)(=O)c4ccc(NCC5CCOCC5)c([N+](=O)[O-])c4)c(Oc4cnc5[nH]ccc5c4)c3)CC2)=C(c2ccc(Cl)cc2)C1 [Venetoclax]; conditions: max 1 µM
How it was run: as §1

AZD4320 = compound: CN(CC[C@H](CSC1=CC=CC=C1)NC2=C(C=C(C=C2)S(=O)(=O)NC(=O)C3=CC=C(C=C3)N4CCC(CC4)[C@H](C5=CC=CC=C5C6=CC=C(C=C6)Cl)O)S(=O)(=O)C(F)(F)F)CCO [AZD4320]; conditions: max 1 µM
How it was run: as §1

AZD5991 = compound: Cc1c2c(nn1C)CSCc1cc(n(C)n1)CSc1cc(c3ccccc3c1)OCCCc1c(C(=O)O)n(C)c3c-2c(Cl)ccc13 [AZD5991]; conditions: max 1 µM
How it was run: as §1

SN-38 = compound: CCc1c2c(nc3ccc(O)cc13)-c1cc3c(c(=O)n1C2)COC(=O)[C@]3(O)CC [SN-38]; conditions: max 0.3 µM
How it was run: as §1

AZD1775 = compound: C=CCn1c(=O)c2cnc(Nc3ccc(N4CCN(C)CC4)cc3)nc2n1-c1cccc(C(C)(C)O)n1 [AZD1775]; conditions: max 3 µM
How it was run: as §1

Dasatinib = compound: CC1=C(C(=CC=C1)Cl)NC(=O)C2=CN=C(S2)NC3=CC(=NC(=N3)C)N4CCN(CC4)CCO [Dasatinib]; conditions: max 2 µM
How it was run: as §1

Alisertib = compound: COc1cc(Nc2ncc3c(n2)-c2ccc(Cl)cc2C(c2c(F)cccc2OC)=NC3)ccc1C(=O)O [Alisertib]; conditions: max 10 µM
How it was run: as §1

AZD1390 = compound: CC(C)n1c(=O)n(C)c2cnc3cc(F)c(-c4ccc(OCCCN5CCCCC5)nc4)cc3c21 [AZD1390]; conditions: max 0.3 µM
How it was run: as §1

Crizotinib = compound: C[C@@H](Oc1cc(-c2cnn(C3CCNCC3)c2)cnc1N)c1c(Cl)ccc(F)c1Cl [Crizotinib]; conditions: max 10 µM
How it was run: as §1

AZD5153 = compound: COc1nnc2ccc(N3CCC(c4ccc(OCCN5CCN(C)C(=O)[C@H]5C)cc4)CC3)nn12 [AZD5153]; conditions: max 1 µM
How it was run: as §1

Capivasertib = compound: C1CN(CCC1(C(=O)N[C@@H](CCO)C2=CC=C(C=C2)Cl)N)C3=NC=NC4=C3C=CN4 [Capivasertib]; conditions: max 10 µM
How it was run: as §1

Savolitinib = compound: C[C@@H](c1ccc2nccn2c1)n1nnc2ncc(-c3cnn(C)c3)nc21 [Savolitinib]; conditions: max 1 µM
How it was run: as §1

AZD7648 = compound: Cc1cc2ncnn2cc1Nc1ncc2c(n1)n(C1CCOCC1)c(=O)n2C [AZD7648]; conditions: max 10 µM
How it was run: as §1

AZD8186 = compound: C[C@@H](Nc1cc(F)cc(F)c1)c1cc(C(=O)N(C)C)cc2c(=O)cc(N3CCOCC3)oc12 [AZD8186]; conditions: max 3 µM
How it was run: as §1

Gefitinib = compound: COc1cc2ncnc(Nc3ccc(F)c(Cl)c3)c2cc1OCCCN1CCOCC1 [Gefitinib]; conditions: max 10 µM
How it was run: as §1

Lapatinib = compound: CS(=O)(=O)CCNCc1ccc(-c2ccc3ncnc(Nc4ccc(OCc5cccc(F)c5)c(Cl)c4)c3c2)o1 [Lapatinib]; conditions: max 10 µM
How it was run: as §1

MK-2206 = compound: NC1(c2ccc(-c3nc4ccn5c(=O)[nH]nc5c4cc3-c3ccccc3)cc2)CCC1 [MK-2206]; conditions: max 10 µM
How it was run: as §1

Row | Cell Line | IC50, cell viability 72 h (Olaparib) | IC50, cell viability 72 h (Selumetinib) | IC50, cell viability 72 h (AZD2811) | IC50, cell viability 72 h (SG3199) | IC50, cell viability 72 h (Trametinib) | IC50, cell viability 72 h (Palbociclib) | IC50, cell viability 72 h (Doxorubicin) | IC50, cell viability 72 h (Taselisib) | IC50, cell viability 72 h (AZD6738) | IC50, cell viability 72 h (AZD0156) | IC50, cell viability 72 h (Prexasertib) | IC50, cell viability 72 h (Venetoclax) | IC50, cell viability 72 h (AZD4320) | IC50, cell viability 72 h (AZD5991) | IC50, cell viability 72 h (SN-38) | IC50, cell viability 72 h (AZD1775) | IC50, cell viability 72 h (Dasatinib) | IC50, cell viability 72 h (Alisertib) | IC50, cell viability 72 h (AZD1390) | IC50, cell viability 72 h (Crizotinib) | IC50, cell viability 72 h (AZD5153) | IC50, cell viability 72 h (Capivasertib) | IC50, cell viability 72 h (Savolitinib) | IC50, cell viability 72 h (AZD7648) | IC50, cell viability 72 h (AZD8186) | IC50, cell viability 72 h (Gefitinib) | IC50, cell viability 72 h (Lapatinib) | IC50, cell viability 72 h (MK-2206)
1 | LC-1-sq (Squamous Cell Lung Carcinoma) | > 10 µM | > 10 µM | > 1 µM | > 0.001 µM | > 1 µM | > 10 µM | > 1 µM | > 10 µM | 2.13 µM | > 3 µM | 0.0164 µM | > 1 µM | > 1 µM | > 1 µM | > 0.3 µM | 0.294 µM | > 2 µM | > 10 µM | > 0.3 µM | > 10 µM | 0.49 µM | > 10 µM | > 1 µM | > 10 µM | > 3 µM | > 10 µM | > 10 µM | –
2 | NCI-H650 (Lung Adenocarcinoma) | > 10 µM | > 10 µM | > 1 µM | > 0.001 µM | > 1 µM | > 10 µM | > 1 µM | > 10 µM | > 10 µM | > 3 µM | 0.283 µM | > 1 µM | > 1 µM | > 1 µM | 0.1 µM | 2.65 µM | > 2 µM | > 10 µM | > 0.3 µM | > 10 µM | > 1 µM | > 10 µM | > 1 µM | > 10 µM | > 3 µM | > 10 µM | > 10 µM | > 10 µM
3 | NCI-H1092 (Small Cell Lung Carcinoma) | > 10 µM | > 10 µM | > 1 µM | > 0.001 µM | > 1 µM | > 10 µM | > 1 µM | > 10 µM | > 10 µM | > 3 µM | 0.144 µM | > 1 µM | 0.152 µM | 0.819 µM | > 0.3 µM | 2.94 µM | > 2 µM | > 10 µM | > 0.3 µM | > 10 µM | > 1 µM | > 10 µM | > 1 µM | > 10 µM | > 3 µM | > 10 µM | > 10 µM | > 10 µM
4 | NCI-H1838 (Lung Adenocarcinoma) | > 10 µM | > 10 µM | > 1 µM | > 0.001 µM | > 1 µM | > 10 µM | > 1 µM | 5.86 µM | > 10 µM | > 3 µM | 0.212 µM | > 1 µM | > 1 µM | > 1 µM | > 0.3 µM | 2.44 µM | > 2 µM | > 10 µM | > 0.3 µM | > 10 µM | > 1 µM | > 10 µM | > 1 µM | > 10 µM | > 3 µM | > 10 µM | > 10 µM | > 10 µM
5 | NCI-H2122 (Lung Adenocarcinoma) | > 10 µM | 0.496 µM | 0.347 µM | > 0.001 µM | 0.0138 µM | 1.91 µM | > 1 µM | 0.373 µM | 1.14 µM | > 3 µM | 0.0291 µM | > 1 µM | > 1 µM | > 1 µM | 0.0405 µM | 0.547 µM | > 2 µM | 0.065 µM | > 0.3 µM | 1.92 µM | 0.115 µM | 4.95 µM | > 1 µM | > 10 µM | > 3 µM | 5.67 µM | 6.23 µM | –
6 | OACM5-1 (Esophageal Adenocarcinoma) | > 10 µM | > 10 µM | > 1 µM | > 0.001 µM | > 1 µM | 6.86 µM | 0.615 µM | 0.418 µM | 9.88 µM | > 3 µM | 0.134 µM | > 1 µM | > 1 µM | 0.0582 µM | 0.0464 µM | 2.55 µM | > 2 µM | 3.85 µM | > 0.3 µM | 4.4 µM | 0.391 µM | 1.99 µM | > 1 µM | > 10 µM | > 3 µM | > 10 µM | 8.07 µM | –
